Assay results published in patent US5110904A (Abbott Laboratories, priority 1990, dated 1992).
Starred links: 1 amine or outer side, 2 acyl side, 3 side chain; linkers in the order of their positions; H or OH if unused. Non-standard residues stand in square brackets, D forms with d. Residues, ends and D or L forms follow the SMILES beside them. X1 = CCNC[C@@H](C(=O)[*:2])N(C)[*:1]; Sar = CNCC(=O)O

Tests used:
[1] = target: T1, LH release (Rattus norvegicus, UniProt P30969); test: In vitro LH release from dissociated rat pituitary cells (agonists); type: cell-based; conditions: negative log of concentration producing half-maximal release of LH, 3 hours at 37° C.
T1 sequence (P30969 1-327): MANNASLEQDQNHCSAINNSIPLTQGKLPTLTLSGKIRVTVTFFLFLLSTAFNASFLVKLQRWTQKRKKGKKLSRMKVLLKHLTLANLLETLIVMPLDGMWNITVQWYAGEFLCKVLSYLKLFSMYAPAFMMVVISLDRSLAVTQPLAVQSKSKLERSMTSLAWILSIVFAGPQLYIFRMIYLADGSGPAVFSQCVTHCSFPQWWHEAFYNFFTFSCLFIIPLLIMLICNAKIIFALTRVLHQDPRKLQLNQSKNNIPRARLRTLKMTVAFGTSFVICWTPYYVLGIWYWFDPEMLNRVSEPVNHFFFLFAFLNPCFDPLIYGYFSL
Description: Rat pituitaries are removed from immature female rats, minced, and dissociated with collagenase/hyaluronidase. They are allowed to attach to 48-well microtiter plates for 48-72 hours, then are exposed to test compounds for 3 hours at 37° C. The medium is assayed for released LH by RIA (radioimmunoassay).

[2] = target: T1, LH release; test: In vivo LH release in castrated rats; conditions: dose producing half-maximal LH release, time integrated LH response
Description: The compound to be tested is administered to castrated rats intraveneously and the serum LH concentration at various time points is measured by RIA. The time integrated LH response is calculated and the dose producing half-maximal LH release (ED50) is reported.

[3] = target: T2, LHRH receptors (Rattus norvegicus, UniProt P30969); test: Radioligand receptor binding assay, rat pituitary membranes; conditions: radioiodinated [D-Leu6-des Gly10]-LHRH ethyl amide 50 pM, 2 hours at 4° C., read-out: Receptor Binding pkI (converted)
T2 sequence (P30969 1-327): T1 sequence (P30969 1-327)
Description: The radioligand (50 pM), receptors, and compounds to be tested are coincubated for 2 hours at 4° C. Bound ligand is separated from free ligand via centrifugation and aspiration.

Question: With `CCNC[C@@H](C(=O)N[C@@H](Cc1ccc(O)cc1)C(=O)N[C@H](Cc1c[nH]c2ccccc12)C(=O)N[C@@H](CC(C)C)C(=O)N[C@@H](CCCNC(=N)N)C(=O)N1CCC[C@H]1C(=O)NCC)N(C)C(=O)[C@H](Cc1c[nH]c2ccccc12)NC(=O)[C@H](Cc1c[nH]cn1)NC(=O)CN(C)C(C)=O` [Ex. 7, N-Ac-Sar-His-Trp-(3)-N-Et-(2)-N-Me-Dap-Tyr-D-Trp-Leu-Arg-Pro-NHEt] (Ac-[Sar]HW[X1]Y[dW]LRP-NHEt) as the compound, how does the “LH Release pD2” value [1] read?
Answer: 9.73

Question: What about the ED50 ug/kg i.v. [2] of the same compound?
Answer: 9.64 µg/kg

Question: How did the Ki [3] turn out when `CCNC(=O)CC[C@H](NC(=O)NCC)C(=O)N[C@@H](Cc1c[nH]cn1)C(=O)N[C@@H](Cc1c[nH]c2ccccc12)C(=O)N(C)[C@@H](CO)C(=O)N[C@@H](Cc1ccc(O)cc1)C(=O)N[C@H](Cc1c[nH]c2ccccc12)C(=O)N[C@@H](CC(C)C)C(=O)N[C@@H](CCCNC(=N)N)C(=O)N1CCC[C@H]1C(=O)NCC` [Ex. 12, (2)-N-(Ethylaminocarbonyl)-(5)-N-ethylamido-Glu-His-Trp-N-Me-Ser-Tyr-D-Trp- Leu-Arg-Pro-NHEt] was run?
Answer: 1.05 nM

Question: And the “LH Release pD2” value [1]?
Answer: 9.31

Question: And the ED50 ([2]; rat, iv, i.v., read-out: ED50 ug/kg i.v.)?
Answer: 9.9 µg/kg
